This passage reports IC50 results from patent publication US20240270748A1 (Merck Patent GmbH, priority 2021, published 2024).

The subject of one test is SW620 Yap KO cells. The test is described as follows: Viability assay in SW620 Yap KO (Yap independent) cells, CyQuant. It is filed as cell-based. The conditions noted are these: Homo sapiens, SW-620, 96 h. The method, boiled down:
(§1)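 Seeded cells were dosed 24 h later in duplicate (10-point, 1:3 dilutions, top 30 μM final, 0.3% DMSO) and incubated 96 h at 37 °C. Viability was read with CyQUANT DNA dye after 1 h, fluorescence bottom read. NCI-H226 in RPMI 1640 medium; SW620 YAP/TAZ CRISPR knockout in DMEM/F-12 medium.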

The subject of a further test is YAP-TEAD interaction. The test is described as follows: SK-HEP-1 reporter assay (8xTEAD responsive elements driving NanoLuc luciferase). It is filed as cell-based. The conditions noted are these: Homo sapiens, SK-HEP1, SK-HEP-1 reporter assay. The gist of the method: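 Reporter read-out: NanoLuc luminescence from 8×TEAD elements stably integrated in SK-HEP-1 cells, after 24 h compound exposure at 37° C. Ten concentrations tested in duplicate, top 30 μM final, 0.3% DMSO; IC50 from curve.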
For orientation: In a reporter assay the amount or activity of a reporter protein is the signal.

The subject of another test is NCI-H226 cells. The test is described as follows: Viability assay in NCI-H226 (Yap-dependent) cells, CyQuant. It is filed as cell-based, human. The conditions noted are these: Homo sapiens, NCI-H226, 96 h, class symbols. The method, boiled down: as §1
Setting [1] is: n.d. = value not detectable below threshold given in parentheses.
Setting [2] is: n.d. = value not detectable below threshold given in parentheses, ND = not determinable within the entire range.

As usually defined, the IC50 is the concentration that gives 50% inhibition. `Cn1cc2c3cc(C(=O)N=[S@@](=O)(CCO)Cc4ccccn4)ccc3n(-c3ccc(C(F)(F)F)cc3)c2n1` (single isomer, unassigned) [Example C177]: the IC50 is more than 3000 nM with SW620 Yap KO cells (setting [1]), more than 6500 nM with YAP-TEAD interaction (setting [1]) and 100 to 1000 nM in the test on NCI-H226 cells.

In the case of `Cn1cc2c3cc(C(=O)N[C@@H](CO)c4ccccn4)ccc3n(-c3ccc(C(F)(F)F)cn3)c2n1` [Example C150, N-[(1R)-2-hydroxy-1-(pyridin-2-yl)ethyl]-2-methyl-8-[5-(trifluoromethyl)pyridin-2-yl]-2H,8H-pyrazolo[3,4-b]indole-5-carboxamide], the figures for the IC50 with SW620 Yap KO cells (class symbols), in the test on YAP-TEAD interaction (class symbols) and in the test with NCI-H226 cells were 10000 to 30000 nM, 10 to 100 nM and 1 to 100 nM, respectively.

Turning to `[2H]C1([2H])C(n2c3ccc(C(=O)NC)cc3c3cn(C)nc32)C([2H])([2H])C([2H])([2H])C([2H])([2H])C1([2H])[2H]` [Example C194, 8-[(2,2,3,3,4,4,5,5,6,6-^2H10)cyclohexyl]-N,2-dimethyl-2H,8H-pyrazolo[3,4-b]indole-5-carboxamide], the IC50 in the test with SW620 Yap KO cells (setting [1]) was more than 30000 nM; in the test with YAP-TEAD interaction (class symbols), 100 to 10000 nM; in the test with NCI-H226 cells, 1000 to 10000 nM.

Regarding `Cn1nnc2c3cc(-c4noc(=O)[nH]4)ccc3n(-c3ccc(C(F)(F)F)cc3)c21` [Example C3, 3-{2-methyl-4-[4-(trifluoromethyl)phenyl]-3H,4H-[1,2,3]triazolo[4,5-b]indol-7-yl}-4,5-dihydro-1,2,4-oxadiazol-5-one], the IC50 in the test with SW620 Yap KO cells (setting [2]) was more than 30000 nM; with YAP-TEAD interaction (class symbols), 10 to 100 nM; in the test with NCI-H226 cells, 100 to 1000 nM.

On to `C[C@@H](NC(=O)c1ccc2c(c1)c1nn(C)nc1n2-c1ccc(C(F)(F)F)cc1)c1ccncc1` [Example C180, 2-methyl-N-[(1R)-1-(pyridin-4-yl)ethyl]-4-[4-(trifluoromethyl)phenyl]-2H,4H-[1,2,3]triazolo[4,5-b]indole-7-carboxamide], for which the IC50 in the test with SW620 Yap KO cells (setting [1]) is more than 30000 nM; with YAP-TEAD interaction (class symbols), 10 to 100 nM; with NCI-H226 cells it was 1 to 100 nM.

With `Cn1cc2c3cc(C(=O)NCc4ccccc4)ccc3n(-c3ccc(C(F)(F)F)cc3)c2n1` [Example C56, N-benzyl-2-methyl-8-[4-(trifluoromethyl)phenyl]-2H,8H-pyrazolo[3,4-b]indole-5-carboxamide], the IC50 in the test with SW620 Yap KO cells (setting [2]) was more than 30000 nM; with YAP-TEAD interaction (class symbols), 10 to 100 nM; with NCI-H226 cells, 1 to 100 nM.

For the molecule `Cn1nc2c3cc(C4CC(Cl)=NO4)ccc3n(-c3ccc(C(F)(F)F)cc3)c2n1` (stereo not drawn) [Example C18, 3-chloro-5-{2-methyl-4-[4-(trifluoromethyl)phenyl]-2H,4H-[1,2,3]triazolo[4,5-b]indol-7-yl}-4,5-dihydro-1,2-oxazole], the IC50 is more than 30000 nM in the test on SW620 Yap KO cells (setting [2]), 10 to 100 nM in the test on YAP-TEAD interaction (class symbols) and 1 to 100 nM with NCI-H226 cells.

Regarding `Cn1nc2c3cc(C(=O)N=[S@](=O)(CCCO)Cc4ccncc4)ccc3n(-c3ccc(C(F)(F)F)cc3)c2n1` (single isomer, unassigned) [Example C252], the half-inhibitory concentration (IC50) in the test on SW620 Yap KO cells (class symbols) was 1000 to 10000 nM; in the test with YAP-TEAD interaction (setting [1]), more than 300 nM; in the test on NCI-H226 cells, 100 to 1000 nM.

Regarding `Cc1snc2c1c1cc(C(=O)NCc3ccncc3)ccc1n2-c1ccc(C(F)(F)F)cc1` [Example C62, 3-methyl-N-[(pyridin-4-yl)methyl]-8-[4-(trifluoromethyl)phenyl]-8H-[1,2]thiazolo[3,4-b]indole-5-carboxamide], the IC50 is more than 3200 nM in the test with SW620 Yap KO cells (setting [2]), 10 to 100 nM with YAP-TEAD interaction (class symbols) and 1 to 100 nM in the test with NCI-H226 cells.

Regarding `Cn1cc2c3cc(C(=O)N=[S@@](=O)(CCO)Cc4ccncc4)ccc3n(-c3ccc(C(F)(F)F)cc3)c2n1` (single isomer, unassigned) [Example C254], the IC50 in the test on SW620 Yap KO cells (class symbols) was 1000 to 10000 nM; in the test with YAP-TEAD interaction (setting [1]), more than 300 nM; in the test on NCI-H226 cells it was 1 to 100 nM.

For `Cc1snc2c1c1cc(C(=O)N[C@@H](C)CO)ccc1n2-c1ccc(C(F)(F)F)cc1` [Example C70, N-[(2S)-1-hydroxypropan-2-yl]-3-methyl-8-[4-(trifluoromethyl)phenyl]-8H-[1,2]thiazolo [3,4-b]indole-5-carboxamide], the figures for the IC50 in the test with SW620 Yap KO cells (setting [2]), with YAP-TEAD interaction (class symbols) and in the test with NCI-H226 cells were more than 3200 nM, 10 to 100 nM and 1 to 100 nM, respectively.

Regarding `Cn1nc2c3cc(C(=O)N=[S@](C)(=O)CCCO)ccc3n(-c3ccc(C(F)(F)F)cc3)c2n1` (single isomer, unassigned) [Example C172], the IC50 was more than 30000 nM with SW620 Yap KO cells (setting [1]), 10 to 100 nM in the test with YAP-TEAD interaction (class symbols) and 1 to 100 nM with NCI-H226 cells.

With `Cn1nc2c3cc(C(=O)NC[C@@H](O)C(F)(F)F)ccc3n(-c3ccc(C(F)(F)F)cc3)c2n1` [Example C160, 2-methyl-N-[(2R)-3,3,3-trifluoro-2-hydroxypropyl]-4-[4-(trifluoromethyl)phenyl]-2H,4H-[1,2,3]triazolo[4,5-b]indole-7-carboxamide], the IC50 with SW620 Yap KO cells (setting [2]) is more than 30000 nM; in the test on YAP-TEAD interaction (class symbols), 10 to 100 nM; with NCI-H226 cells, 1 to 100 nM.

For `Cn1nnc2c3cc(C(=O)N=[S@](=O)(CCO)Cc4cccnc4)ccc3n(-c3ccc(C(F)(F)F)cc3)c21` (single isomer, unassigned) [Example C251], the IC50 was more than 3000 nM in the test on SW620 Yap KO cells (setting [1]), 10 to 100 nM in the test with YAP-TEAD interaction (class symbols) and 100 to 1000 nM with NCI-H226 cells.

On to `Cn1nc2c3cc(C(=O)N[C@@H](CCO)c4ccccn4)ccc3n(-c3ccc(C(F)(F)F)cc3)c2n1` (single isomer, unassigned) [Example C242], for which the figures for the IC50 with SW620 Yap KO cells (setting [1]), in the test on YAP-TEAD interaction (class symbols) and with NCI-H226 cells were more than 3000 nM, 10 to 100 nM and 1 to 100 nM, respectively.

For `Cn1cc2c3cc(C(=O)NC(CO)c4cscn4)ccc3n(-c3ccc(C(F)(F)F)cc3)c2n1` (stereo not drawn) [Example C277, N-[2-hydroxy-1-(1,3-thiazol-4-yl)ethyl]-2-methyl-8-[4-(trifluoromethyl)phenyl]-2H,8H-pyrazolo[3,4-b]indole-5-carboxamide], the IC50 with SW620 Yap KO cells (setting [1]) is more than 30000 nM; with YAP-TEAD interaction (class symbols), 10 to 100 nM; in the test on NCI-H226 cells, 1 to 100 nM.

On to `Cn1cnc2c1c1cc(C(=O)N[C@](C)(CO)c3ccccn3)ccc1n2-c1ccc(C(F)(F)F)cc1` [Example C2, N-[(2S)-1-hydroxy-2-(pyridin-2-yl)propan-2-yl]-1-methyl-4-[4-(trifluoromethyl)phenyl]-1H,4H-imidazo [4,5-b]indole-7-carboxamide], for which the IC50 in the test with SW620 Yap KO cells (setting [2]) is more than 30000 nM; in the test with YAP-TEAD interaction (class symbols), 10 to 100 nM; in the test with NCI-H226 cells, 1 to 100 nM.

As to `Cn1cc2c3cc(C(=O)N=[S@](=O)(CCO)Cc4ccccn4)ccc3n(-c3ccc(C(F)(F)F)cc3)c2n1` (single isomer, unassigned) [Example C175], the values for the IC50 with SW620 Yap KO cells (setting [1]), in the test with YAP-TEAD interaction (setting [1]) and with NCI-H226 cells were more than 3000 nM, more than 9500 nM and 1 to 100 nM, respectively.

On to `Cc1snc2c1c1cc(C(=O)N=S(C)(=O)CCCO)ccc1n2-c1ccc(C(F)(F)F)cc1` (stereo not drawn) [Example C16, N-[(3-hydroxypropyl)(methyl) οχο-λ6-sulfanylidene]-3-methyl-8-[4-(trifluoromethyl)phenyl]-8H-[1,2]thiazolo[3,4-b]indole-5-carboxamide], for which the figures for the IC50 in the test with SW620 Yap KO cells (setting [2]), with YAP-TEAD interaction (class symbols) and with NCI-H226 cells were more than 3000 nM, 10 to 100 nM and 1 to 100 nM, respectively.

Consider `Cc1c2c3cc(C(=O)O)ccc3n(-c3ccc(C(F)(F)F)cc3)c2nn1C` [Example C95, 2,3-dimethyl-8-[4-(trifluoromethyl)phenyl]-2H,8H-pyrazolo[3,4-b]indole-5-carboxylic acid], for which the IC50 is more than 30000 nM in the test with SW620 Yap KO cells (setting [2]), 10 to 100 nM in the test with YAP-TEAD interaction (class symbols) and 1 to 100 nM in the test with NCI-H226 cells.
